Experimental data taken from patent US8084457B2, “Pharmaceutically active 4,6-disubstituted aminopyrimidine derivatives as modulators of protein kinases” (Lead Discovery Center GmbH, priority 2003, dated 2011).

Experiments:
Type in all cases: biochemical
[1] = biological target: Abl (Homo sapiens, UniProt P00519); assay: General kinase assay, selectivity panel: Abl; conditions: 10 μM of compound, in comparison to DMSO (0% inhibition)
Procedure: (§1) The inhibitory effect of compounds according to the present invention on the activity of protein kinases, depicted in Table 1, can be measured according to the following protocol:
(§2) Pipettinq Sequence: • 1) Add 10 μl 4 fold concentrated Substrate+4 fold concentrated ATP in 3 fold concentrated Reaction Buffer to each well of Assay Plate • 2) Add 10 μl 4 fold concentrated inhibitor in 4% DMSO in H2O to each well except to C− and C+ wells • 3) Add 10 μl 4% DMSO in H2O to C− and C+ wells • 4) Add 10 μl 500 mM EDTA in H2O to − wells • 5) Add 10 μl 50 μCi/ml Adenosine 5′-[γ-^33P]triphosphate in H2O to each well • 6) Add 10 μl 4 fold concentrated kinase in Reaction Buffer to each well • 7) Incubate 1 hr at room temperature • 8) Add 10 μl 50 mM EDTA in H2O to each well except to C− wells • 9) Prepare MAPH plates by adding 200 μl 0.75% H3PO4 to each well • 10) Exhaust 0.75% H3PO4 using Millipore vacuum station • 11) Add 60 μl 0.75% H3PO4 to each well of MAPH Filter Plate • 12) Transfer 30 μl sample per well from Assay Plate to corresponding well of MAPH Filter Plate • 13) Incubate 30 min at room temperature • 14) Wash each well of MAPH Filter Plates 3× with 200 μl 0.75% H3PO4 using Millipore vacuum station. • 15) Add 20 μl Scintillation Liquid to each well of MAPH Filter Plate • 16) Seal MAPH Filter Plate • 17) Store MAPH Filter Plate 30 min in darkness • 18) Quantify radioactivity
(§3) The activity of these protein kinases is depicted as % inhibition in the presence of 10 μM of compound in comparison to DMSO (0% inhibition).

[2] = biological target: CDK1 (Homo sapiens, UniProt P06493); assay: General kinase assay, selectivity panel: CDK1; conditions: 10 μM of compound, in comparison to DMSO (0% inhibition)
Chain of CDK1 (P06493 whole entry, species assumed): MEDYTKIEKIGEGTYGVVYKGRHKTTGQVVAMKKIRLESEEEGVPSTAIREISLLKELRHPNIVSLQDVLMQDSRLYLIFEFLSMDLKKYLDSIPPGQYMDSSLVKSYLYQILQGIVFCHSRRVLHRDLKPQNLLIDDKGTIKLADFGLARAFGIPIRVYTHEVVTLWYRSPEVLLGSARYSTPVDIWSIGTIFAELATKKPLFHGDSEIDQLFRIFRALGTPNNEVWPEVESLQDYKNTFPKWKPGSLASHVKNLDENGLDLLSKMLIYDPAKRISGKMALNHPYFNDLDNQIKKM
Chain of CDK1 (P14635 whole entry partner, species assumed): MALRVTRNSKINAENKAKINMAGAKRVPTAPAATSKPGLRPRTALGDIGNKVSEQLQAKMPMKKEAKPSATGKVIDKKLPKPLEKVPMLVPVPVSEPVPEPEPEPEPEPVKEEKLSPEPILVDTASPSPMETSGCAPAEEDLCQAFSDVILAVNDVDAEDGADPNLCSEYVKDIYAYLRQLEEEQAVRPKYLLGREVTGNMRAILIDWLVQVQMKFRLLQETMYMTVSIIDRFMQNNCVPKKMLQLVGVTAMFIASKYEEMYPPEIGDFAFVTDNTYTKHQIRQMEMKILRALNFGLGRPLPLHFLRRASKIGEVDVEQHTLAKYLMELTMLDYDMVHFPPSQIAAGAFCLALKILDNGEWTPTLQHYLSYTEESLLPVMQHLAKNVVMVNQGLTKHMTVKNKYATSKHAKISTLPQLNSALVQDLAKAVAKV
Procedure: as §1, §2, §3

[3] = biological target: EGFR (Homo sapiens, UniProt P00533); assay: General kinase assay, selectivity panel: EGFR; conditions: 10 μM of compound, in comparison to DMSO (0% inhibition)
Chain of EGFR (P00533 25-1210, species assumed): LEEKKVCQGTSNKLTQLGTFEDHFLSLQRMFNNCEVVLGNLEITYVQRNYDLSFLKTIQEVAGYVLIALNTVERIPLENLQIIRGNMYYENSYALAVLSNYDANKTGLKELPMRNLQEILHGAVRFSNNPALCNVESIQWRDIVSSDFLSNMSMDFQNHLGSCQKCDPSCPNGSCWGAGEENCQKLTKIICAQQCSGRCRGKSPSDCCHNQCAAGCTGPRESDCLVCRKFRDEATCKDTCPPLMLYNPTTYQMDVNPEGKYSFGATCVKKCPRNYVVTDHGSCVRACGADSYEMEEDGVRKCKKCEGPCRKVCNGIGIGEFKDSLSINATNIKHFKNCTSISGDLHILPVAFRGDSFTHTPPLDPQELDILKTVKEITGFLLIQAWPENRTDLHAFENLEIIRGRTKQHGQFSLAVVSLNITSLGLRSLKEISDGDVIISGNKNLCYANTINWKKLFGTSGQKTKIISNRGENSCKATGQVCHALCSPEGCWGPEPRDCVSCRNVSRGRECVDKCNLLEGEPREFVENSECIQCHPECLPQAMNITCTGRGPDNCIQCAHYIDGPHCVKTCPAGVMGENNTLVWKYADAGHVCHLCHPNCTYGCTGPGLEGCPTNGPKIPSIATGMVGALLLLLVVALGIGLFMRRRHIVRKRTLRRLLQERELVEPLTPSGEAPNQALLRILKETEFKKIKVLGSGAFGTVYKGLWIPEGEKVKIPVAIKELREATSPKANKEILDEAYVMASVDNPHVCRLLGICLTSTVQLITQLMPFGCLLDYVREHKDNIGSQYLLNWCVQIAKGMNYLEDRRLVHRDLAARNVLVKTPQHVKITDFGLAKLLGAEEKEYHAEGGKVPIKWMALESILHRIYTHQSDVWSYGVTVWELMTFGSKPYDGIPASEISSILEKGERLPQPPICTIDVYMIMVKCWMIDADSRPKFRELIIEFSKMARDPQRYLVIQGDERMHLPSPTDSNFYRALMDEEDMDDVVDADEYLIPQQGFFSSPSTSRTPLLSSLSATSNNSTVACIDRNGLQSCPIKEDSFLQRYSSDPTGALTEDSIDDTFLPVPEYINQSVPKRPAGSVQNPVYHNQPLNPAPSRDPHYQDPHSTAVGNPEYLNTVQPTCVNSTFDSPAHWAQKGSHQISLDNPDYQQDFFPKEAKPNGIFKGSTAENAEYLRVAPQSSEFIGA
Procedure: as §1, §2, §3

[4] = test system: PDGFR; assay: General kinase assay, selectivity panel: PDGFR; conditions: 10 μM of compound, in comparison to DMSO (0% inhibition)
Procedure: as §1, §2, §3

[5] = biological target: c-Kit (Homo sapiens, UniProt P10721); assay: General kinase assay, selectivity panel: c-Kit; conditions: 10 μM of compound, in comparison to DMSO (0% inhibition)
Chain of c-Kit (P10721 26-976): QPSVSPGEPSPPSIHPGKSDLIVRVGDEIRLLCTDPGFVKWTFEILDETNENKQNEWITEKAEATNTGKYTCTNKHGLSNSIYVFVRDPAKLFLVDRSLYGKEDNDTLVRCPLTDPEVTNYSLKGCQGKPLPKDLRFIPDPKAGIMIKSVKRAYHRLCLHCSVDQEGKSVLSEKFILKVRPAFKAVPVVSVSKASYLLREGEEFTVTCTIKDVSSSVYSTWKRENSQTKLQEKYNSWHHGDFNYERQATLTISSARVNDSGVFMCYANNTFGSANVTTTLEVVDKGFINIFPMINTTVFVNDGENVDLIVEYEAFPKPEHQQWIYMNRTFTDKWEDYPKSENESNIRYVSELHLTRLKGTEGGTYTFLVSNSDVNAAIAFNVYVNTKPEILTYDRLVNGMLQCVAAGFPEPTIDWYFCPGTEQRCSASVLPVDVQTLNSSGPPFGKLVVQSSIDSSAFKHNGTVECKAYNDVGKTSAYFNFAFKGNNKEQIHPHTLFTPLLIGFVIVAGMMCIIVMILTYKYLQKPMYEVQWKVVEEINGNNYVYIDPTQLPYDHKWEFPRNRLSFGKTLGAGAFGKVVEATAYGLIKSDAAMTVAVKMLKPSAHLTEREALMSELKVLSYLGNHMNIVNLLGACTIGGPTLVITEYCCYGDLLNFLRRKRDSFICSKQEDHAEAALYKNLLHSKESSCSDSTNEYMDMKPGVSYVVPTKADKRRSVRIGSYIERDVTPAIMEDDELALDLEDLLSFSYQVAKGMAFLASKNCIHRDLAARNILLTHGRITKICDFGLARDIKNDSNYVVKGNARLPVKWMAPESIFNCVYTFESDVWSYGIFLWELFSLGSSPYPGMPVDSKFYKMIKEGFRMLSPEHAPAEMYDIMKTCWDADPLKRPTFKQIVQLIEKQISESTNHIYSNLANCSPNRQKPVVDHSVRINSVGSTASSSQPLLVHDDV
Procedure: as §1, §2, §3

[6] = biological target: p56 Lck (Homo sapiens, UniProt P06239); assay: General kinase assay, selectivity panel: p56 Lck; conditions: 10 μM of compound, in comparison to DMSO (0% inhibition)
Chain of p56 Lck (P06239 whole entry): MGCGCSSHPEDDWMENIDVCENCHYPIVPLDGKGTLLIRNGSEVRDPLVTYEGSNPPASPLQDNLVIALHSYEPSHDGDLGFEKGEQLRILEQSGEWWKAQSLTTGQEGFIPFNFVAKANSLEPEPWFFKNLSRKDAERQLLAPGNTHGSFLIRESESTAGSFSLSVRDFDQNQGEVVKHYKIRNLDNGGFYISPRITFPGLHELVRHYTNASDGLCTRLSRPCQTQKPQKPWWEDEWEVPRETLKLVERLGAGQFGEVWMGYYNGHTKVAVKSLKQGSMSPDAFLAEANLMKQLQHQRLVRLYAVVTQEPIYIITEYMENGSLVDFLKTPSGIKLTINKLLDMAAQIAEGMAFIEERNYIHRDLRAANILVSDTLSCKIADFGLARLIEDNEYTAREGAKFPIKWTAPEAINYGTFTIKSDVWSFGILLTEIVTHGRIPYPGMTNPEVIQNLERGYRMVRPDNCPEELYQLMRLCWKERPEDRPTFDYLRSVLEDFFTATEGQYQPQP
Procedure: as §1, §2, §3

[7] = biological target: GSK-3β (Homo sapiens, UniProt P49841); assay: General kinase assay, selectivity panel: GSK-3β; conditions: 10 μM of compound, in comparison to DMSO (0% inhibition)
Chain of GSK-3β (P49841 whole entry, species assumed): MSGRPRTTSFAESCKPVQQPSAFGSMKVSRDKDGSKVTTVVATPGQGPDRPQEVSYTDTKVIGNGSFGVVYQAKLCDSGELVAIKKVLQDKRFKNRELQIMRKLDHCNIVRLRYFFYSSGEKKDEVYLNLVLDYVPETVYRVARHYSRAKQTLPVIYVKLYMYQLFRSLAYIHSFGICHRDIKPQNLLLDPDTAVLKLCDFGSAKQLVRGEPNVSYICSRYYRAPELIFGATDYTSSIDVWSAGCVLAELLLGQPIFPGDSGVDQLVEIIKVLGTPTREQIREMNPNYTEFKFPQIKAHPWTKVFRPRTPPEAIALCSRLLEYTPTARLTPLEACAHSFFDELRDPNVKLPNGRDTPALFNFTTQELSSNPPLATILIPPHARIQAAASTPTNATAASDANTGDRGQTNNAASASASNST
Procedure: as §1, §2, §3

[8] = biological target: T1, CDK9/Cyclin T1 (Homo sapiens, UniProt P50750); assay: Kinase assay using CDK9/Cyclin T1; conditions: read-out: CDK9 (activity range)
T1 construct: made in house; host or cells: HEK293 cells, recombinant adenovirus
How it was run: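 Recombinant CDK9/Cyclin T1 produced via adenoviral expression from gateway-cloned cDNAs. Kinase reaction run essentially per a published protocol.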

[9] = biological target: T2, CDK2/CyclinA (Homo sapiens, UniProt P24941); assay: Kinase assay determining CDK2/CyclinA activity; conditions: read-out: CDK2 (activity range)
T2 construct: purchased Proqinase
Procedure: Kinase Assays Determining CDK2/CyclinA and CDK5/p35 Activity:
Kinase assays were performed as described by the manufacturers recommendations (Proqinase for CDK2/CyclinA and Upsate for CDK5/p35).

[10] = biological target: CDK4 (Homo sapiens, UniProt P11802); assay: Kinase assay, CDK4 activity range (Table 2)

Chain of Abl (P00519 whole entry, species assumed): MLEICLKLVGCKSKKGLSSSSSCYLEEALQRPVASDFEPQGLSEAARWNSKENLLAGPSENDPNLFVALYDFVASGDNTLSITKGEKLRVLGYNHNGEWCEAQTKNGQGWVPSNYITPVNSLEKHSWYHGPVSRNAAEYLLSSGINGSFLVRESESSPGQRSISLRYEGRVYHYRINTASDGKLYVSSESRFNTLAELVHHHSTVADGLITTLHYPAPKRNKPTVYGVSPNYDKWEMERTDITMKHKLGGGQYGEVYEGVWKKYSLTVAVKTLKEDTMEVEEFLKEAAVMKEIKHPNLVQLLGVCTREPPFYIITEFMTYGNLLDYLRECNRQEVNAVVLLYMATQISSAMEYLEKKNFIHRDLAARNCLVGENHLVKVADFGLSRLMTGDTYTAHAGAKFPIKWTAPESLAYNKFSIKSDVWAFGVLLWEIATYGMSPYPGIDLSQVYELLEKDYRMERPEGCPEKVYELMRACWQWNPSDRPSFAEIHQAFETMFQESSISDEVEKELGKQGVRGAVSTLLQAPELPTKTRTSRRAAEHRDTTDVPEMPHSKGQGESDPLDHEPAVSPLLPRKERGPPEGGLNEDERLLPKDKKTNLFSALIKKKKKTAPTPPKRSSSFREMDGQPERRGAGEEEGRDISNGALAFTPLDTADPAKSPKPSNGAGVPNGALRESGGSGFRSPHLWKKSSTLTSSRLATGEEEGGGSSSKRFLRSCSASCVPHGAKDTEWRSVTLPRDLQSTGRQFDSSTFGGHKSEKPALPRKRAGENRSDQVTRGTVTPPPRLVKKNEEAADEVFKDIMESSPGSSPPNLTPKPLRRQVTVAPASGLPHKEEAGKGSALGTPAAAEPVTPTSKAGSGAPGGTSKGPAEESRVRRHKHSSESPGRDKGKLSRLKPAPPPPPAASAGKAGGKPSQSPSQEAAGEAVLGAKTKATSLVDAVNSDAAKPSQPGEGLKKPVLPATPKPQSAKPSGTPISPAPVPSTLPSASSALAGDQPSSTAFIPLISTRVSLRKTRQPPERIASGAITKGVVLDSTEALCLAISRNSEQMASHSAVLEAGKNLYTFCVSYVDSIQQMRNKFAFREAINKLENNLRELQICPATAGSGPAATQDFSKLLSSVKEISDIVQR

SMILES | Abl (% inhibition) [1] | CDK1 (% inhibition) [2] | EGFR (% inhibition) [3] | PDGFR (% inhibition) [4] | c-Kit (% inhibition) [5] | p56 Lck (% inhibition) [6] | GSK-3β (% inhibition) [7] | IC50 [8] [nM] | IC50 [9] [nM] | IC50 [10] [nM]
COc1ccccc1-c1cc(Nc2ccc(NC(=O)CC3CCCCN3)cc2)ncn1 (stereo not drawn) [Compound 59] | b (inhibition between 80 and 50%: b) | a (inhibition greater than 80%: a) | a (inhibition greater than 80%: a) | b (inhibition between 80 and 50%: b) | b (inhibition between 80 and 50%: b) | b (inhibition between 80 and 50%: b) |  |  |  | 
COc1ccccc1-c1cc(Nc2ccc(NC(=O)[C@H]3CCCN3)cc2)ncn1 [Compound 91] | b (inhibition between 80 and 50%: b) | b (inhibition between 80 and 50%: b) | a (inhibition greater than 80%: a) | b (inhibition between 80 and 50%: b) |  | b (inhibition between 80 and 50%: b) | c (inhibition between 50 and 30%: c) |  |  | 
CCCS(=O)(=O)Nc1cc(Nc2cc(-c3cccc(N)c3)ncn2)ccc1C [Compound 116] |  | a (inhibition greater than 80%: a) | a (inhibition greater than 80%: a) | c (inhibition between 50 and 30%: c) |  | b (inhibition between 80 and 50%: b) | a (inhibition greater than 80%: a) |  |  | 
Cc1ccc(Nc2cc(-c3cccc(N)c3)ncn2)cc1NS(C)(=O)=O [Compound 12] |  | a (inhibition greater than 80%: a) | a (inhibition greater than 80%: a) | c (inhibition between 50 and 30%: c) | b (inhibition between 80 and 50%: b) | b (inhibition between 80 and 50%: b) | a (inhibition greater than 80%: a) |  |  | 
COc1ccccc1-c1cc(Nc2ccc(NC(=O)Cc3ccccc3)cc2)ncn1 [Compound 71] |  | a (inhibition greater than 80%: a) | c (inhibition between 50 and 30%: c) | b (inhibition between 80 and 50%: b) | b (inhibition between 80 and 50%: b) | b (inhibition between 80 and 50%: b) | c (inhibition between 50 and 30%: c) |  |  | 
CC(C)Oc1ccccc1-c1cc(Nc2ccc(NC(=O)c3ccc(N)cc3)cc2)ncn1 [Compound 58] |  | a (inhibition greater than 80%: a) | b (inhibition between 80 and 50%: b) |  |  | a (inhibition greater than 80%: a) | a (inhibition greater than 80%: a) |  |  | 
COc1ccccc1-c1cc(Nc2ccc(NC(=O)c3ccc(N)cc3)cc2)ncn1 [Compound 8] |  | a (inhibition greater than 80%: a) |  |  | b (inhibition between 80 and 50%: b) | b (inhibition between 80 and 50%: b) |  |  |  | 
COc1ccccc1-c1cc(Nc2ccc(NC(C)=O)cc2)ncn1 [Compound 10] |  | a (inhibition greater than 80%: a) | b (inhibition between 80 and 50%: b) | c (inhibition between 50 and 30%: c) | b (inhibition between 80 and 50%: b) | b (inhibition between 80 and 50%: b) | b (inhibition between 80 and 50%: b) |  |  | 
COc1ccccc1-c1cc(Nc2ccc(NC(=O)[C@H]3CCCCN3)cc2)ncn1 [Compound 69] | b (inhibition between 80 and 50%: b) | b (inhibition between 80 and 50%: b) | a (inhibition greater than 80%: a) | b (inhibition between 80 and 50%: b) | b (inhibition between 80 and 50%: b) | a (inhibition greater than 80%: a) |  |  |  | 
COc1ccccc1-c1cc(Nc2ccc(NC(=O)NC3CCCCC3)cc2)ncn1 [Compound 38] |  | b (inhibition between 80 and 50%: b) | c (inhibition between 50 and 30%: c) | b (inhibition between 80 and 50%: b) | b (inhibition between 80 and 50%: b) | b (inhibition between 80 and 50%: b) | c (inhibition between 50 and 30%: c) |  |  | 
COc1ccccc1-c1cc(Nc2ccc(NC(=O)C3(N)CCCC3)cc2)ncn1 [Compound 68] | b (inhibition between 80 and 50%: b) | b (inhibition between 80 and 50%: b) | a (inhibition greater than 80%: a) | b (inhibition between 80 and 50%: b) | b (inhibition between 80 and 50%: b) | b (inhibition between 80 and 50%: b) |  |  |  | 
COc1ccccc1-c1cc(Nc2ccc(N)cc2)ncn1 [Compound 22] |  | a (inhibition greater than 80%: a) | a (inhibition greater than 80%: a) | c (inhibition between 50 and 30%: c) | b (inhibition between 80 and 50%: b) | b (inhibition between 80 and 50%: b) | c (inhibition between 50 and 30%: c) |  |  | 
COc1ccccc1-c1cc(Nc2ccc(C(=O)NC3CCCNC3)cc2)ncn1 (stereo not drawn) [Compound 86] | c (inhibition between 50 and 30%: c) | a (inhibition greater than 80%: a) | a (inhibition greater than 80%: a) | b (inhibition between 80 and 50%: b) |  | b (inhibition between 80 and 50%: b) | b (inhibition between 80 and 50%: b) |  |  | 
COc1ccccc1-c1cc(Nc2cccc(S(N)(=O)=O)c2)ncn1 [(150)] |  |  |  |  |  |  |  | 1 to 1000 | 1 to 1000 | 10000 to 250000
COc1ccccc1-c1cc(Nc2ccc(NC(=O)[C@H]3Cc4ccccc4CN3)cc2)ncn1 [Compound 65] | b (inhibition between 80 and 50%: b) | b (inhibition between 80 and 50%: b) | a (inhibition greater than 80%: a) | b (inhibition between 80 and 50%: b) | b (inhibition between 80 and 50%: b) | b (inhibition between 80 and 50%: b) |  |  |  | 
